Source: US6391304B1, “Peptides derived from the ENV gene of the feline immunodeficiency virus and their applications” (Centre National de la Recherche Scientifique, priority 1997, dated 2002)
“And” between values parts separate entries of the source, which are not always exact repeats. Equal values may be shown once. “Also recorded” adds a separate entry of the source. Ends that are not written are not given here.

Columns and labels:
TM2 envelope peptide = experiment: Seroconversion ELISA after the virulence test, TM2 peptide; type: in vivo, cats; conditions: for Binding of the sera to TM2, 3 weeks after the virulence test / Binding of the sera to TM2, 4 weeks after the virulence test / Binding of the sera to TM2, 5 weeks after the virulence test: ELISA, seral dilution 1/25, individual cats; for response against the TM2 peptide: at 4 weeks after the test
Protocol: (§1) The cats are subjected to a virulence test, one week after the final immunization, by means of an intraperitoneal inoculation of 10 CID50 of FIV Wo isolate, one CID50 corresponding to the dose capable of infecting 50% of the cats.
(§2) The production on of antibodies is evaluated before the test by means of an ELISA using an immobilized peptide (SU2, SU5, TM2 or TM3-19) and immunoprecipitation. After the test, the seroconversion is monitored by an ELISA using immobilized envelope peptides and a recombinant FTV capsid protein.
(§3) The ELISA with the immobilized envelope peptides corresponding to the immunogenic domains SU2 and TM2 and with the immobilized recombinant p25 protein (FIV capsid protein) is carried out as described in Avraméas A. et al. (Res. Virol., 1993, 144, 209-218).
(§4) Microplates (Immunolon II, Dynatech) are coated with 0.5 μg/well for the peptides and with 0.1 μg/well for the p25 protein.
(§5) The tests are carried out in duplicate and the results are expressed as average values.
(§6) After the test, the seroconversion against the envelope peptides and the p25 protein is evaluated at serum dilutions of 1/25 and 1/100, respectively.
(§7) The absorbance values (at 405 nm) are corrected by subtraction of the absorbance values obtained by binding with an immobilized control peptide.
(§8) The tests are normalized with reference to the binding of a mixture of serum from cats infected with FIV with a peptide representing the immunodominant domain of the FIV transmembrane glycoprotein (TM2) (Avraméas A. et al., Res. Virol., 1993, 144, 209-218).

FIV Wo isolate = experiment: Plasmatic viral load by competitive RT-PCR after the virulence test; type: in vivo, cats; conditions: for course of the primary infection (viral RNA in plasma, viral dissemination): after test with 10 CID50 of Wo isolate, relative to control cats, FIG. 3
Protocol: Groups of four cats 4½ months old are immunized subcutaneously with 120 μg of FIV peptide (approximately 250 μg of peptide coupled to KLH (keyhole limpet haemocyanin)), emulsified in complete Freund's adjuvant.
Four repeat immunizations are administered subcutaneously in an incomplete Freund's adjuvant, generally at intervals of 2-3 weeks, although the interval between the last 2 […] was 7 weeks.
as §1
The plasma is filtered (0.45 μm) and the RNA not associated with cells is extracted directly from the filtered plasma using the Viral RNA kit (Qiagene) and eluted in 50 μl of water according to the manufacturer's instructions, and the RNA is then divided into aliquots and stored at −80° C.
A conserved region of the FIV gag gene is selected as a target sequence for the reverse transcription of the competitive RNA and the overlapping PCR amplification.
For the synthesis of the cDNA, 2.5 μl of viral RNA are mixed with 2.5 μl containing different numbers of copies of competitive RNA; typically, the various samples of competitive RNA are prepared using 5 semi-logarithmic dilutions, straddling the number of copies estimated in the biological sample.
The RNA is denatured at 65° C. for 5 minutes and immediately placed on ice. The reagents for the reverse transcription (15 μl) are added.
The final reaction mixtures contain 0.3 U/ml of random hexanucleotides (sequences of 6 randomly aligned nucleotides which make it possible theoretically to amplify any RNA fragment) (Pharmcia), 0.5 mM of dNTP, 10 mM of DTT, 1× of commercial buffer (Gibco BRL) and 100 U of Superscript II (Glbco BRL), in a volume of 20 μl.
The reactions are first carried out at 25° C. for 10 minutes to promote the hybridization of the primers, and then at 42° C. for 50 minutes. The reverse transcriptase is inactivated by incubation at 95° C. for 5 minutes.
The highly conserved sequences are selected as primers. The complementary DNA is amplified by overlapping PCR, using:
For the first amplification, the PCR reagents (80 μl) are added as a mixture with 20 μl of cDNA.
The DNA is denatured at 94° C. for 3 minutes, subjected to 28 cycles of amplification (94° C. 30 s/55° C. 30 s/72° C. 30 s) and to an elongation at 72° C. for 7 minutes.
For the overlapping amplification, 2 μl of the product of the first amplification is transferred into 98 μl of reaction mixture containing 200 μM of dNTP, 1.5 mM of MgCl2, 0.5 μM of each internal primer, 1× of commercial buffer (Gibco BRL) and 0.25 U of Taq polymerase (Gibco BRL).
The DNA is denatured at 94° C. for 3 minutes, subjected to 28 cycles of amplification (94° C. 30 s/52° C. 30 s/72° C. 30 s) and to an elongation at 72° C. for 7 minutes.
The amplification products (10 μl ) are subjected to electrophoresis on 2.75% agarose gel.
Digital images of the gels stained with ethidium bromide are obtained using the Appligene Imager and the densitometry analyses are carried out with the Image NIH software. The density of the competitive product is adjusted as a function of the difference between the length of the native sequence and that of the competitive sequence.
The logarithm of the ratio:density or competitive product/density of the native product, is plotted as a function of the logarithm of the number of copies of competitive RNA added to each reaction.
The best adjustment is determined by the least-squares method and the number of copies of native RNA corresponds to the intersection of the axis of the Xs (Piatak M. Jr. et al., Biotechniques, 1993, 14, 70-80).
The cumulative area under the curve (Dawson J., Drug Information J., 1994, 28, 723-732) is calculated from graphs illustrating the ratio: copies of viral RNA/ml of plasma/time, and compared with the Mann-Whitney test.

CD4+ T lymphocytes = experiment: Counting of circulating CD4+ T lymphocytes by flow cytometry; type: in vivo, cats; conditions: acute infection with FIV Wo, FIG. 2
Protocol: Counting of the CD4^+ T lymphocytes is carried out at regular intervals before the test, on the day of the test and at regular intervals during the acute infection.
The CD4^+ T lymphocytes are counted by flow cytometry, using monoclonal antibodies (Clinisciences).
To evaluate the effect of the immunization on the pathology associated with a primary infection, circulating CD4^+ lymphocytes are counted before and after the test with the FIV Wo strain.

[1] = tested on: p25 recombinant FIV capsid protein; experiment: Seroconversion ELISA after the virulence test, p25; type: in vivo, cats; conditions: for Binding of the sera to p25, 3 weeks after the virulence test / Binding of the sera to p25, 4 weeks after the virulence test / Binding of the sera to p25, 5 weeks after the virulence test: ELISA, seral dilution 1/100, individual cats
Protocol: as §1, §2, §3, §4, §5, §6, §7, §8

FIV Petaluma strain = experiment: Neutralization of infection of CrFK cells by sera of immunized cats; type: cell-based; conditions: for neutralizing antibodies in sera of immunized cats: CrFK cell line
Protocol: The detection of antibodies neutralizing the infection of the CrFKs with the FIV Petaluma strain is carried out as described previously (Richardson J. et al., J. Gen. Virol., 1996, 77, 759-771).
To evaluate the function of the antibodies, the feline sera directed against the SU2 peptide are tested for their neutralizing value with respect to the infection of CrFK cells with the FIV Petaluma strain.

Substance	Binding of the sera to TM2, 3 weeks after the virulence test (TM2 envelope peptide)	Binding of the sera to TM2, 4 weeks after the virulence test (TM2 envelope peptide)	Binding of the sera to TM2, 5 weeks after the virulence test (TM2 envelope peptide)	response against the TM2 peptide (TM2 envelope peptide)	course of the primary infection (viral RNA in plasma, viral dissemination) (FIV Wo isolate)	number of CD4+ lymphocytes after the infection (CD4+ T lymphocytes)	Binding of the sera to p25, 3 weeks after the virulence test [1]	Binding of the sera to p25, 4 weeks after the virulence test [1]	Binding of the sera to p25, 5 weeks after the virulence test [1]	neutralizing antibodies in sera of immunized cats (FIV Petaluma strain)	final dilution of serum which reduces the infection by at least 50% (FIV Petaluma strain; cat 327, CrFK cells)	Plasmatic viraemia, RT-PCR (FIV Wo isolate; 3 weeks after the test with 10 CID50 of FIV Wo, individual cats)	reduction in the viral load relative to the control cats, Mann-Whitney test p (FIV Wo isolate; area under the cumulative curve at 3 weeks and 4 weeks after the test)	detection of plasmatic viraemia during the measurement period (FIV Wo isolate; cat 348)	number of copies of viral RNA observed in plasma (maximum) (FIV Wo isolate; primary infection, measurement period)	response to the p25 protein ([1]; at 5 weeks after the test)
SU2: peptide of the SU2 domain of the FIV surface envelope glycoprotein, SEQ ID NO: 2, used as immunogen (RAISSWKQRNRWEWRPD)	0 optical density	1.3 optical density and 2.2 optical density and 2.1 optical density and 1.4 optical density	2.1 optical density (2×) and 2.3 optical density and 2.5 optical density	developed a large response	does not appear to modify the course of the primary infection; also recorded: do not modify the course of the infection	gradual reduction	0 optical density	0.2 optical density (2×) and 0.4 optical density and 0 optical density	1.1 optical density and 1.3 optical density and 1.9 optical density and 0.2 optical density	Only one cat (327) immunized with the SU2 peptide develops neutralizing antibodies	1/160					
KKGLQQLQEWEDWVGWIGN [TM3-19, 19-amino-acid fragment of the TM3 domain of the FIV Wo Env transmembrane glycoprotein (759-777)]	0 optical density (3×) and 1.2 optical density	0.1 optical density and 2.4 optical density and 0 optical density and 0.5 optical density	1.9 optical density and 2.5 optical density and 0 optical density and 2.3 optical density	all but one (347) of the cats immunized with the TM3-19 peptide show a weak or undetectable response	generally different from that observed with the control cats; also recorded: the infection in the other 3 cats of this group appears in a retarded manner; also recorded: significantly retards the viral dissemination	does not show a large decrease	0 optical density (2×) and 0.2 optical density and 0.1 optical density	0.1 optical density and 2.3 optical density and 0 optical density (2×)	0.6 optical density and 2.3 optical density and 0 optical density and 0.1 optical density	do not neutralize		undetectable (2×) and 1.19 × 10^7 copies of viral RNA/ml of plasma and 5.56 × 10^6 copies of viral RNA/ml of plasma	0.02	not possible to detect a plasmatic viraemia in one of the cats (348)	≤ 3.1×10^6 copies/ml	one cat (348) immunized with the TM3-19 peptide does not respond and among the other 3 cats, 2 animals (346, 349) develop only weak responses
